Read-outs that look alike come from different tables or passages of the source.

Assay [1] has as its target rat brain PKC isozyme mixture. The experiment in a line: Protein Kinase C (Isozyme Mix) Assay. The format is binding. Particulars: for Ki: rat brain PKC isozyme mixture, read-out: Binding Affinity.
The target of a further assay is PKCδ-C1B (Homo sapiens (Human), UniProt Q05655). Briefly: PKCδ-C1B Assay. The format is binding.
The next assay deals with P388 cell line. Briefly: P388 Murine Lymphocytic Leukemia Cell Assay. The assay is classed as cell-based. Particulars: 5 days incubation, MTT. Here is the method:
Cells from a P388 cell line (CellGate, Inc., Sunnyvale, Calif.) are grown in RPMI 1640 cell medium containing fetal calf serum (10%), L-glutamine, penicillin, streptomycin and are split twice weekly. All compounds are first diluted with DMSO. Later serial dilutions are done with a phosphate buffer solution (HYQ DPBS modified phosphate buffered saline). All dilutions are done in glass vials and the final DMSO concentration is always below 0.5% by volume. Final two-fold dilutions are done in a 96 well plate using cell media so that each well contains 50 μL. All compounds are assayed in quadruplicate over 12 concentrations. Cell concentration is measured using a hemacytometer and the final cell concentration is adjusted to 1×10^4 cells/mL with cell medium. The resulting solution of cells (50 μL) is then added to each well and the plates are incubated for 5 days in a 37° C., 5% CO2, humidified incubator (Sanyo CO2 incubator). MTT solution (3-[4,5-dimethylthiazol-2-yl]-2,5-diphenyltetrazolium bromide, 10 μL) is then added to each well and the plates are re-incubated under identical conditions for 2 h. To each well is then added acidified isopropanol (150 μL of i-PrOH solution containing 0.05 N HCl) and mixed thoroughly. The plates are then scanned at 595 nm and the absorbances are read (Wallac Victor 1420 Multilabel Counter). The resulting data is then analyzed to determine an ED50 value using the Prism software package (GraphPad).

Chain of PKCδ-C1B (Q05655 whole entry, looked up): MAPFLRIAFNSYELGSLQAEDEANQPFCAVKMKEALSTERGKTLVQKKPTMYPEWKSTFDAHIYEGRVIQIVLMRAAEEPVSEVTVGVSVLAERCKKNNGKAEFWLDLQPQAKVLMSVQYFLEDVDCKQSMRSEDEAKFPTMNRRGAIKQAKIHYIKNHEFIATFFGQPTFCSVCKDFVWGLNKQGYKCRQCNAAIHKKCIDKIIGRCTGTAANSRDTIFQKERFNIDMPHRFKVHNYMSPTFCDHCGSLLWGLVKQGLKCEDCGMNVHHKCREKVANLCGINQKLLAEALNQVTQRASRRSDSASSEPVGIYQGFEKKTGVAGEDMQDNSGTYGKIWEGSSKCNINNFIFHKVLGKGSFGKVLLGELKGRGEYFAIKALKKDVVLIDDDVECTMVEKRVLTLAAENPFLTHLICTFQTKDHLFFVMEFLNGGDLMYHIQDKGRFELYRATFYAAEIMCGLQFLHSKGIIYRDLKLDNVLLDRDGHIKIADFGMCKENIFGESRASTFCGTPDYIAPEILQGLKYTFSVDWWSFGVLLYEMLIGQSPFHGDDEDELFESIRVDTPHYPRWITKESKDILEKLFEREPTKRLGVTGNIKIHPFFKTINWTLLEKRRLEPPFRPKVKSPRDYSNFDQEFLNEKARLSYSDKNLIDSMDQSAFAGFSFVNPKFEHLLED

Turning to `CCCCCCCC(=O)O[C@H]1/C(=C/C(=O)OC)C[C@H]2C[C@H](CO)OC(=O)C[C@H](O)CCO[C@H](c3ccc(Br)cc3)C[C@@H]3CCO[C@H](/C=C/C(C)(C)[C@]1(O)O2)O3` [Formula 18C], the Ki in assay [1] was determined as 1.6 nM.

On to `CCCCCCCC(=O)O[C@H]1/C(=C/C(=O)OC)C[C@H]2C[C@H](CO)OC(=O)C[C@H](O)CCO[C@H](c3ccccc3)C[C@@H]3CCO[C@H](/C=C/C(C)(C)[C@]1(O)O2)O3` [Formula 19B.0], for which the Ki in assay [1] amounted to 2.3 nM.

As for `CCCCCCCC(=O)O[C@H]1/C(=C/C(=O)OC)C[C@H]2C[C@H](CO)OC(=O)C[C@H](O)CCO[C@H](c3ccc(-c4ccccc4)cc3)C[C@@H]3CCO[C@H](/C=C/C(C)(C)[C@]1(O)O2)O3` [Formula 19B.1], the Ki in assay [1] is 3.1 nM.

As to `CCCCCCCC(=O)O[C@H]1/C(=C/C(=O)OC)C[C@H]2C[C@H](CO)OC(=O)C[C@H](O)CCO[C@H](c3ccc(CCCOCCOCC)cc3)C[C@@H]3CCO[C@H](/C=C/C(C)(C)[C@]1(O)O2)O3` [Formula 19B.2], the Ki in assay [1] stood at 3.8 nM.

As for `CCCCCC/C=C/c1ccc([C@@H]2C[C@@H]3CCO[C@H](/C=C/C(C)(C)[C@]4(O)O[C@@H](C/C(=C\C(=O)OC)[C@@H]4OC(=O)CCCCCCC)C[C@H](CO)OC(=O)C[C@H](O)CCO2)O3)cc1` [Formula 19B.3], the Ki in assay [1] was found to be 4.6 nM.

At PKCδ-C1B, `COC(=O)/C=C1\C[C@H]2C[C@H]([C@@H](C)O)OC(=O)C[C@H](O)C[C@@H]3CCC[C@H](C[C@@H]4CCO[C@H](/C=C/C(C)(C)[C@](O)(O2)[C@H]1OC(C)=O)O4)O3` [Formula 702.2] yielded a Ki of 232 ± 11 nM. Moreover, the “P388 Assay ED50” value with P388 cell line is 181 nM.

With `CCCCCCC(=O)OC1C(=CC(=O)OC)CC2CC(C(C)O)OC(=O)CC(O)CC3CCCC(CC4CCOC(C=CC(C)(C)C1(O)O2)O4)O3` (stereo not shown) [Formula 702.3], the Ki on PKCδ-C1B (competition with tritiated phorbol 12,13-dibutyrate) was found to be 35 nM. For the same compound, in the assay with P388 cell line, the “P388 Assay ED50” value came to 38 nM.

On to `CCCC(=O)O[C@@H]1[C@@H](C)[C@@]2(O)[C@@H](C=C(CO)C[C@]3(O)C(=O)C(C)=C[C@@H]23)[C@@H]2C(C)(C)[C@]12OC(=O)CCC` [Phorbol dibutyrate, phorbol 12,13-dibutyrate, reference compound], for which the dissociation constant (Kd) (in general, the equilibrium constant for the complex coming apart) in assay [1] (under identical conditions to the PKC isozyme mix assay, read-out: Kd of [H^3]-PDBu) came to 1.55 nM.

The record behind these values is patent US8497385B2, “Bryostatin analogues, synthetic methods and uses” (The Board of Trustees of the Leland Stanford Junior …, priority 2007, dated 2013).
